Measured values from patent US12391737B2, “Soluble NPY2 receptor agonists” (Boehringer Ingelheim International GmbH, priority 2020, dated 2025).

What was measured:
Solubility determination = details: for Sol6: pH 6; for Sol7: pH 7
Experimental: Peptides (as TFA salts) were weighed out in a filter unit (Mini-UniPrep Syringeless Filter 0.45 μm, Whatman), and 0.1 M sodium diphosphate buffer at pH 6.4 or 7.0 was added to achieve 10 mg/ml final concentration. The peptide was dissolved by shaking the filter unit horizontally at 600 rpm for 2 hours at room temperature. The sample was filtered, to remove any insoluble particles and diluted to 1 mg/ml in 50% acetonitrile. The control was prepared by weighing out the corresponding peptide and dissolving it in 50% acetonitrile to final concentration of 1 mg/ml. Both the control and sample were analysed with reversed phase chromatography. The area under the peak of the sample was compared to the control and the solubility was calculated based on that ratio.
The pH was measured and recorded for each sample.
System: UltiMate 3000 UPLC, ThermoFisher
Mobile phase A: 5% acetonitrile, 95% water, 0.03% trifluoracetic acid.
Mobile phase B: 95% acetonitrile, 5% water, 0.03% trifluoracetic acid.
Gradient: 0-100% mobile phase B (2 mins.)
Column temperature: 50° C.

[1] = target: T1, Human Neuropeptide Y2 Receptor (Homo sapiens, UniProt P49146); assay: Radioligand binding competition assay (RLB); details: Table 3, 125I-PYY(1-36) competition; read-out: Ki
T1 construct: purchased CHEMICON HTS066M
T1 sequence (P49146 1-381): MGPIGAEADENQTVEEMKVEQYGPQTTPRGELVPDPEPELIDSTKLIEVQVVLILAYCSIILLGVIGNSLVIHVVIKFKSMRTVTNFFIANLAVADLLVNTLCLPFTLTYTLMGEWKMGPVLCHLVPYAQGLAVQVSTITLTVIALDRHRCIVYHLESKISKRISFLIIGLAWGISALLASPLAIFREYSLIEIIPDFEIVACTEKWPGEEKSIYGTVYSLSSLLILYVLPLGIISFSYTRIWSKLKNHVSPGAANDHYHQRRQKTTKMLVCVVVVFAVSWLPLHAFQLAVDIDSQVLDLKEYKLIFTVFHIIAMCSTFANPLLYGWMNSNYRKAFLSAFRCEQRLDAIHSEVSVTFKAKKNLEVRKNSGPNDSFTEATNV
Experimental: The filtration RLB assay was carried out in 96-well plates in a final volume of 100 μl per well. Freeze-dried test peptides were dissolved in 100% dimethyl sulfoxide (DMSO) to stock solutions of 1 mM and serial dilutions were performed in assay buffer (50 mM HEPES, 5 mM MgCl2, 1 mM CaCl2, pH 7.4) containing 0.2% ovalbumin. […] Next, 80 μL membranes (HTS066M, ChemiSCREEN™ Human Neuropeptide Y2 Receptor Membrane Preparation, CHEMICON) were added to each well to give a final protein concentration of 0.5 μg/well. The plates were sealed and incubated at room temperature for 2 hours in a plate shaker set at 400 rpm. The incubation was stopped by vacuum filtration onto 0.5% polyethylene amine (PE) presoaked GF/C filters using a 96-well FilterMate™ harvester (Perkin Elmer) followed by four washes with 300 μl/well ice-cold wash buffer (50 mM HEPES, 500 mM NaCl, pH7.4). Filter plates were then dried for 60 min at room temperature and the bottom of the plates was sealed with backing tape UniFilter-96. Finally, 50 μl/well scintillation counter cocktail (Microscint20, Packard) was added and the radioactivity was counted in the Packard TopCount NXT scintillation counter. IC50 values (the half maximal inhibitory concentration of the agonist) were calculated by nonlinear regression analysis of sigmoidal dose-response curves.

Compound	Sol6 (Solubility determination)	Sol7 (Solubility determination)	Ki [1]
CC(C)CC(=O)N[C@@H](C)C(=O)N1CCC[C@H]1C(=O)N[C@@H](C)C(=O)N[C@@H](CCCCNC(=O)CCCCCNC(=O)CC[C@H](NC(=O)CCCCCCCCCCCCCCCCC(=O)O)C(=O)O)C(=O)N1CCC[C@H]1C(=O)N[C@@H](CCC(=O)O)C(=O)N[C@@H](CCC(=O)O)C(=O)N[C@@H](CC(=O)O)C(=O)N[C@@H](C)C(=O)N[C@@H](CO)C(=O)N1CCC[C@H]1C(=O)N[C@@H](CCC(=O)O)C(=O)N[C@@H](CCC(=O)O)C(=O)N[C@@H](CC(C)C)C(=O)N[C@@H](CCC(N)=O)C(=O)N[C@@H](CCCNC(=N)N)C(=O)N[C@@H](CCC(N)=O)C(=O)N[C@@H](Cc1ccc(O)cc1)C(=O)N[C@H](C(=O)N[C@@H](CO)C(=O)N[C@@H](CC(C)C)C(=O)N[C@@H](CCCNC(=N)N)C(=O)N[C@@H](Cc1c[nH]cn1)C(=O)N[C@@H](Cc1ccc(O)cc1)C(=O)N[C@@H](Cc1ccc(O)cc1)C(=O)N[C@@H](CC(N)=O)C(=O)N[C@@H](Cc1c[nH]c2ccccc12)C(=O)N[C@@H](CC(C)C)C(=O)N[C@H](C(=O)N[C@@H](CCCNC(=N)N)C(=O)N[C@@H](CCC(N)=O)C(=O)N[C@@H](CCCNC(=N)N)C(=O)N[C@@H](Cc1ccc(O)cc1)C(N)=O)[C@@H](C)O)C(C)C [Compound 5, N{alpha-4}-(3-methylbutanoyl)-N{epsilon-7}-(6-[(4S)-4-carboxy-4-(17-carboxyheptadecanamido)butanamido]hexanoyl)[4A,6A,7K,9E,18Q,20Q,22V,28Y,30W,31L]-hPYY(4-36)]	3.6 mg/mL	8.8 mg/mL	12.7 nM
CC(C)CC(=O)N[C@@H](C)C(=O)N1CCC[C@H]1C(=O)N[C@@H](CCC(=O)O)C(=O)N[C@@H](CCCCNC(=O)CCCCCNC(=O)CC[C@H](NC(=O)CCCCCCCCCCCCCCCCC(=O)O)C(=O)O)C(=O)N1CCC[C@H]1C(=O)N[C@@H](CCC(=O)O)C(=O)N[C@@H](CCC(=O)O)C(=O)N[C@@H](CC(=O)O)C(=O)N[C@@H](CCC(=O)O)C(=O)N[C@H](C(=O)N1CCC[C@H]1C(=O)N[C@@H](CCC(=O)O)C(=O)N[C@@H](CCC(=O)O)C(=O)N[C@@H](CC(C)C)C(=O)N[C@@H](CCC(N)=O)C(=O)N[C@@H](CCCNC(=N)N)C(=O)N[C@@H](Cc1ccc(O)cc1)C(=O)N[C@@H](Cc1ccc(O)cc1)C(=O)N[C@H](C(=O)N[C@@H](CO)C(=O)N[C@@H](CC(C)C)C(=O)N[C@@H](CCCNC(=N)N)C(=O)N[C@@H](Cc1c[nH]cn1)C(=O)N[C@@H](Cc1ccc(O)cc1)C(=O)N[C@@H](Cc1ccc(O)cc1)C(=O)N[C@@H](CC(N)=O)C(=O)N[C@@H](Cc1c[nH]c2ccccc12)C(=O)N[C@@H](CC(C)C)C(=O)N[C@H](C(=O)N[C@@H](CCCNC(=N)N)C(=O)N[C@@H](CCC(N)=O)C(=O)N[C@@H](CCCNC(=N)N)C(=O)N[C@@H](Cc1ccc(O)cc1)C(N)=O)[C@@H](C)O)C(C)C)[C@@H](C)O [Compound 8, N{alpha-4}-(3-methylbutanoyl)-N{epsilon-7}-(6-[(4S)-4-carboxy-4-(17-carboxyheptadecanamido)butanamido]hexanoyl)[4A,7K,9E,12E,13T,18Q,22V,28Y,30W,31L]-hPYY(4-36)]	9.7 mg/mL	9.6 mg/mL	106 nM
CC(C)CC(=O)N[C@@H](C)C(=O)N1CCC[C@H]1C(=O)N[C@@H](CCC(=O)O)C(=O)N[C@@H](CCCCNC(=O)CCCCCNC(=O)CC[C@H](NC(=O)CCCCCCCCCCCCCCCCC(=O)O)C(=O)O)C(=O)N1CCC[C@H]1C(=O)N[C@@H](CCC(=O)O)C(=O)N[C@@H](CCC(=O)O)C(=O)N[C@@H](CCC(N)=O)C(=O)N[C@@H](C)C(=O)N[C@H](C(=O)N1CCC[C@H]1C(=O)N[C@@H](CCC(=O)O)C(=O)N[C@@H](CCC(=O)O)C(=O)N[C@@H](CC(C)C)C(=O)N[C@@H](CCC(N)=O)C(=O)N[C@@H](CCCNC(=N)N)C(=O)N[C@@H](Cc1ccc(O)cc1)C(=O)N[C@@H](Cc1ccc(O)cc1)C(=O)N[C@H](C(=O)N[C@@H](CO)C(=O)N[C@@H](CC(C)C)C(=O)N[C@@H](CCCNC(=N)N)C(=O)N[C@@H](Cc1c[nH]cn1)C(=O)N[C@@H](Cc1ccc(O)cc1)C(=O)N[C@@H](Cc1ccc(O)cc1)C(=O)N[C@@H](CC(N)=O)C(=O)N[C@@H](Cc1c[nH]c2ccccc12)C(=O)N[C@@H](CC(C)C)C(=O)N[C@H](C(=O)N[C@@H](CCCNC(=N)N)C(=O)N[C@@H](CCC(N)=O)C(=O)N[C@@H](CCCNC(=N)N)C(=O)N[C@@H](Cc1ccc(O)cc1)C(N)=O)[C@@H](C)O)C(C)C)[C@@H](C)O [Compound 9, N{alpha-4}-(3-methylbutanoyl)-N{epsilon-7}-(6-[(4S)-4-carboxy-4-(17-carboxyheptadecanamido)butanamido]hexanoyl)[4A,7K,9E,11Q,13T,18Q,22V,28Y,30W,31L]-hPYY(4-36)]	9.7 mg/mL	9.9 mg/mL	3.32 nM
CC(C)CC(=O)N[C@@H](C)C(=O)N1CCC[C@H]1C(=O)N[C@@H](CCC(=O)O)C(=O)N[C@@H](CCCCNC(=O)CCCCCNC(=O)CC[C@H](NC(=O)CCCCCCCCCCCCCCCCC(=O)O)C(=O)O)C(=O)N1CCC[C@H]1C(=O)N[C@@H](CCC(=O)O)C(=O)N[C@@H](C)C(=O)N[C@@H](CC(=O)O)C(=O)N[C@@H](C)C(=O)N[C@@H](CO)C(=O)N1CCC[C@H]1C(=O)N[C@@H](CCC(=O)O)C(=O)N[C@@H](CCC(=O)O)C(=O)N[C@H](C(=O)N[C@@H](CCC(N)=O)C(=O)N[C@@H](CCCNC(=N)N)C(=O)N[C@@H](Cc1ccc(O)cc1)C(=O)N[C@@H](Cc1ccc(O)cc1)C(=O)N[C@H](C(=O)N[C@@H](CO)C(=O)N[C@@H](CC(C)C)C(=O)N[C@@H](CCCNC(=N)N)C(=O)N[C@@H](Cc1c[nH]cn1)C(=O)N[C@@H](Cc1ccc(O)cc1)C(=O)N[C@@H](Cc1ccc(O)cc1)C(=O)N[C@@H](CC(N)=O)C(=O)N[C@@H](Cc1c[nH]c2ccccc12)C(=O)N[C@@H](CC(C)C)C(=O)N[C@H](C(=O)N[C@@H](CCCNC(=N)N)C(=O)N[C@@H](CCC(N)=O)C(=O)N[C@@H](CCCNC(=N)N)C(=O)N[C@@H](Cc1ccc(O)cc1)C(N)=O)[C@@H](C)O)C(C)C)[C@@H](C)O [Compound 13, N{alpha-4}-(3-methylbutanoyl)-N{epsilon-7}-(6-[(4S)-4-carboxy-4-(17-carboxyheptadecanamido)butanamido]hexanoyl)[4A,7K,9E,10A,17T,18Q,22V,28Y,30W,31L]-hPYY(4-36)]	10.0 mg/mL	10.0 mg/mL	1.53 nM
CC[C@H](C)[C@H](NC(=O)[C@H](CCC(=O)O)NC(=O)[C@H](CCC(=O)O)NC(=O)[C@@H]1CCCN1C(=O)[C@@H](NC(=O)[C@H](C)NC(=O)[C@H](CC(=O)O)NC(=O)[C@H](CCC(=O)O)NC(=O)[C@H](CCC(=O)O)NC(=O)[C@@H]1CCCN1C(=O)[C@H](CCCCNC(=O)CCCCCNC(=O)CC[C@H](NC(=O)CCCCCCCCCCCCCCCCC(=O)O)C(=O)O)NC(=O)[C@H](CCC(=O)O)NC(=O)[C@@H]1CCCN1C(=O)[C@H](C)NC(=O)CC(C)C)[C@@H](C)O)C(=O)N[C@@H](CCC(N)=O)C(=O)N[C@@H](CCCNC(=N)N)C(=O)N[C@@H](Cc1ccc(O)cc1)C(=O)N[C@@H](Cc1ccc(O)cc1)C(=O)N1CCC[C@H]1C(=O)N[C@@H](CO)C(=O)N[C@@H](CC(C)C)C(=O)N[C@@H](CCCNC(=N)N)C(=O)N[C@@H](Cc1c[nH]cn1)C(=O)N[C@@H](Cc1ccc(O)cc1)C(=O)N[C@@H](Cc1ccc(O)cc1)C(=O)N[C@@H](CC(N)=O)C(=O)N[C@@H](Cc1c[nH]c2ccccc12)C(=O)N[C@@H](CC(C)C)C(=O)N[C@H](C(=O)N[C@@H](CCCNC(=N)N)C(=O)N[C@@H](CCC(N)=O)C(=O)N[C@@H](CCCNC(=N)N)C(=O)N[C@@H](Cc1ccc(O)cc1)C(N)=O)[C@@H](C)O [Compound 17, N{alpha-4}-(3-methylbutanoyl)-N{epsilon-7}-(6-[(4S)-4-carboxy-4-(17-carboxyheptadecanamido)butanamido]hexanoyl)[4A,7K,9E,13T,17I,18Q,22P,28Y,30W,31L]-hPYY(4-36)]	10.0 mg/mL	10.0 mg/mL	24.6 nM
